Read-outs that look alike come from different tables or passages of the source.
Experiments:
D458 = assay: Cell viability assay, medulloblastoma D458; type: cell-based; conditions: Homo sapiens, 72 h, read-out: Antiproliferative activity GI50 D458
Text: (§1) Compounds from Example 1 were subjected to a standard MTT (3-(4,5-dimethylthiazol-2-yl)-2,5-diphenyltetrazolium bromide) and resazurin assays on solid tumour cell lines and leukemia cell lines, respectively, as previously reported (Wang S et al., J Med Chem 47:1662-1675, 2004 and Diab S. et al. CheMedChem 9:962-972, 2014).

D283 = assay: Cell viability assay, medulloblastoma D283; type: cell-based; conditions: Homo sapiens, read-out: Antiproliferative activity GI50 D283
Text: as §1

MV4-11 = assay: Cell viability assay (resazurin, leukemia cell line) MV4-11; type: cell-based, human
Text: as §1

MDA-MB-453 = assay: Cell viability assay (MTT, solid tumour cell line) MDA-MB-453; type: cell-based, human
Text: as §1

A2780 = assay: Cell viability assay, ovarian A2780; type: cell-based; conditions: Homo sapiens, read-out: Antiproliferative activity GI50 A2780
Text: as §1

CDK6D3 = biological target: T1, CDK6D3 (Homo sapiens, UniProt Q00534); assay: Kinase assay CDK6/D3 (radiometric or ADP Glo); type: biochemical; conditions: apparent Ki calculated from Km (ATP) and IC50; read-out: CDK inhibition Ki CDK6D3
T1 construct: purchased Eurofins Pharma Discovery or Reaction Biology Corporation (service)
Outline: (§2)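 Radiometric inhibition data for CDKs came from Eurofins or Reaction Biology profiling services; CDK4/D1 was also run in-house by ADP-Glo in […] pH 7.5, 20 mM MgCl2, 0.4 mM DTT, 0.1 mg/ml BSA with RB-CTF substrate, 40 min at 37 °C after ATP start. Ten-point 1:3 dilutions (10 μM–0.5 nM); four-parameter IC50, Ki from IC50 and ATP Km.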

CDK4D1 = biological target: T2, CDK4D1 (Homo sapiens, UniProt P11802); assay: Kinase assay CDK4/D1 (radiometric or ADP Glo); type: biochemical; conditions: apparent Ki calculated from Km (ATP) and IC50; read-out: CDK inhibition Ki CDK4D1
T2 construct: purchased Eurofins Pharma Discovery or Reaction Biology Corporation (service)
Outline: (§3)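 Compounds were diluted 1:3 over 10 concentrations (10 μM to 0.5 nM). CDK4/D1 reactions with RB-CTF substrate were started with ATP, run 40 min at 37° C, then quenched and detected by ADP-Glo luminescence. CDK7, CDK2 and CDK1 were tested radiometrically by a service. IC50 was fitted by logistic regression.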

CDK1B = CDK1B (Homo sapiens, UniProt P06493); assay: Kinase assay CDK1B (radiometric profiling service); type: biochemical; conditions: apparent Ki calculated from Km (ATP) and IC50; read-out: CDK inhibition Ki CDK1B
Outline: as §3

CDK7H = CDK7H (Homo sapiens, UniProt P50613); assay: Kinase assay CDK7H (radiometric profiling service); type: biochemical; conditions: apparent Ki calculated from Km (ATP) and IC50; read-out: CDK inhibition Ki CDK7H
Outline: as §3

CDK9T1 = biological target: T3, CDK9T1 (Homo sapiens, UniProt P50750); assay: Kinase assay CDK9/T1 (radiometric or ADP Glo); type: biochemical; conditions: apparent Ki calculated from Km (ATP) and IC50; read-out: CDK inhibition Ki CDK9T1
T3 construct: purchased Eurofins Pharma Discovery or Reaction Biology Corporation (service)
Outline: as §2

CDK 2A = CDK 2A (Homo sapiens, UniProt P24941); assay: Kinase assay CDK2A (radiometric profiling service); type: biochemical; conditions: apparent Ki calculated from Km (ATP) and IC50; read-out: CDK inhibition Ki CDK 2A
Outline: as §3

[1] = Homo sapiens, MV4-11, 72 h; read-out: Anti-proliferative activity GI50 MV4-11
[2] = Homo sapiens, MDA-MB-453, 72 h; read-out: Anti-proliferative activity GI50 MDA-MB-453

T3 sequence (P50750 whole entry): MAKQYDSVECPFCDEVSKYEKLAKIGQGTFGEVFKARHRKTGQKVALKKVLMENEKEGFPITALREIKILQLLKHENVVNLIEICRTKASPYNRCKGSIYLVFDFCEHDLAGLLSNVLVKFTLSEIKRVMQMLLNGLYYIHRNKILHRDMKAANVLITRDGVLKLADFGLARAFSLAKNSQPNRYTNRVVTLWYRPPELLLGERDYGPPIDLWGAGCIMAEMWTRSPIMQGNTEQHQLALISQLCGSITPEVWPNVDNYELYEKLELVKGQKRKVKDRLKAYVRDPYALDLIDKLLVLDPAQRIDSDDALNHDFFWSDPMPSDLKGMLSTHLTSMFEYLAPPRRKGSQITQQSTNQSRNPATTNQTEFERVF
T3 sequence (O60563 whole entry partner): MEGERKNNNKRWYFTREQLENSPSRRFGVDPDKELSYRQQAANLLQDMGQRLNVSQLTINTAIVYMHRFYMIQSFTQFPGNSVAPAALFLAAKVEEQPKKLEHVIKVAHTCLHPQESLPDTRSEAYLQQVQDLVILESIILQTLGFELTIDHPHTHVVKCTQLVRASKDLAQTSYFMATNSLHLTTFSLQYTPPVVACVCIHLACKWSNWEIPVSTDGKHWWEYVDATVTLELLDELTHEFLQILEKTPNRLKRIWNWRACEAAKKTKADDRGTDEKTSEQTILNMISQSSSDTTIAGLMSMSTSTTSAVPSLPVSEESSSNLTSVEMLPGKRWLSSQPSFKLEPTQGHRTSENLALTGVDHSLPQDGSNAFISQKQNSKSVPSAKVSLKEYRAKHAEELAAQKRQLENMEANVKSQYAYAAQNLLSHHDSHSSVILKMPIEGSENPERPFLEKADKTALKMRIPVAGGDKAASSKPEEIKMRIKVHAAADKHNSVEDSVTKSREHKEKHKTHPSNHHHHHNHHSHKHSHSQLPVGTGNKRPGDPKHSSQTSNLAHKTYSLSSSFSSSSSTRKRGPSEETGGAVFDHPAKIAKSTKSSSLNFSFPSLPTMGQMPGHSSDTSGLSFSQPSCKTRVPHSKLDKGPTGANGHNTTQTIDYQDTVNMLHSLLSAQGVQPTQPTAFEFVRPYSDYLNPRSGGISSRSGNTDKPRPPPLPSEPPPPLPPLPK
Chain of CDK1B (P06493 whole entry): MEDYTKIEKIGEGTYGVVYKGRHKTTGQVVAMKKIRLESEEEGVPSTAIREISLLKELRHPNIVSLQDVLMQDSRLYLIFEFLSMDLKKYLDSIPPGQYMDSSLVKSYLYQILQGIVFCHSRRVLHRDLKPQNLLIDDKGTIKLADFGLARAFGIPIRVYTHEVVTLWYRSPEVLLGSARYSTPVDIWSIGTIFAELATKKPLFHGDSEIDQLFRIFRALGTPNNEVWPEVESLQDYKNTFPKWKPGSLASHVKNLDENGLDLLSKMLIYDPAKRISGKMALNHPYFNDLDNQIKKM
Chain of CDK1B (P14635 whole entry partner): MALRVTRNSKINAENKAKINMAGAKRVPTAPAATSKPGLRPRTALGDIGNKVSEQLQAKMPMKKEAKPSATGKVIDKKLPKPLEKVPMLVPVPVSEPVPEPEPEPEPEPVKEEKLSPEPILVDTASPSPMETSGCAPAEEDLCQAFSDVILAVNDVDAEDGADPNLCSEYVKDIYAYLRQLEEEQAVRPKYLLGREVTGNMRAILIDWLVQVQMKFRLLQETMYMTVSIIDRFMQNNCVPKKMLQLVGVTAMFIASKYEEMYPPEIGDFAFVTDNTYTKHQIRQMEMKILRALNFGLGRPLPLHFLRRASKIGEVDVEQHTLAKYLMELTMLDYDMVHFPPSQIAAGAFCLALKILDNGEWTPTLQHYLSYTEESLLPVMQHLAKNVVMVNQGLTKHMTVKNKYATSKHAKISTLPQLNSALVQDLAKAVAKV
T2 sequence (P11802 whole entry): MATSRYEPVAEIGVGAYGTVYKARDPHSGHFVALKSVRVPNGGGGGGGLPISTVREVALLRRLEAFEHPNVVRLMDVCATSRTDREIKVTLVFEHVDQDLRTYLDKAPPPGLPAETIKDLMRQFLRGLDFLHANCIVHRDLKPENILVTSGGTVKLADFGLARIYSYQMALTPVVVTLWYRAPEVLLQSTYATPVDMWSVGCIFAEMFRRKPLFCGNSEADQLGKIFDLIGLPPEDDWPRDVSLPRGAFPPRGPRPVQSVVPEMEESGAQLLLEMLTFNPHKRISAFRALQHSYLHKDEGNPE
T2 sequence (P24385 whole entry partner): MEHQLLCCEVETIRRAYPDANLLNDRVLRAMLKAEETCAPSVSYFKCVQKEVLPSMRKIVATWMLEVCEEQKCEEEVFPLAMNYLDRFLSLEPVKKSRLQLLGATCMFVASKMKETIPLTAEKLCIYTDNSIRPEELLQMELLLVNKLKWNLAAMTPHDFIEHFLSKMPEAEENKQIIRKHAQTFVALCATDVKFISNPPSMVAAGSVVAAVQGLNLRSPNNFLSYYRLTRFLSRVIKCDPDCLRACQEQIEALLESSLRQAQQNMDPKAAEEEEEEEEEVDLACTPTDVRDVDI
T1 sequence (Q00534 whole entry): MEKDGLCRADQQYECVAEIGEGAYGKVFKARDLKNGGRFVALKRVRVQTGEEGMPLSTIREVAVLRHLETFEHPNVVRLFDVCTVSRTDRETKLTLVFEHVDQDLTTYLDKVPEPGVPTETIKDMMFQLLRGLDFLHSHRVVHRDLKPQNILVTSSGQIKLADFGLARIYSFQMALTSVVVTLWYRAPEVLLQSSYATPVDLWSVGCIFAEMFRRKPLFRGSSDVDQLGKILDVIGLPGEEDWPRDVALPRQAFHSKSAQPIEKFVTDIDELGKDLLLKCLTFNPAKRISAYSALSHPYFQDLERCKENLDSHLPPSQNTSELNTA
T1 sequence (P30281 whole entry partner): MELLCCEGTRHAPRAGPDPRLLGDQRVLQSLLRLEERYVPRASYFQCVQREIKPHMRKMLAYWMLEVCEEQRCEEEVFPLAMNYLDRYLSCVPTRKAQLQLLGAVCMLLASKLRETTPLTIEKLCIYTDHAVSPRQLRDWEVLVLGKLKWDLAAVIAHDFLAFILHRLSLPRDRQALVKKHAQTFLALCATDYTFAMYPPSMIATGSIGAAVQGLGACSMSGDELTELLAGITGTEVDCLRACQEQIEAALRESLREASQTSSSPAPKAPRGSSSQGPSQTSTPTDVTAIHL
Chain of CDK7H (P50613 whole entry): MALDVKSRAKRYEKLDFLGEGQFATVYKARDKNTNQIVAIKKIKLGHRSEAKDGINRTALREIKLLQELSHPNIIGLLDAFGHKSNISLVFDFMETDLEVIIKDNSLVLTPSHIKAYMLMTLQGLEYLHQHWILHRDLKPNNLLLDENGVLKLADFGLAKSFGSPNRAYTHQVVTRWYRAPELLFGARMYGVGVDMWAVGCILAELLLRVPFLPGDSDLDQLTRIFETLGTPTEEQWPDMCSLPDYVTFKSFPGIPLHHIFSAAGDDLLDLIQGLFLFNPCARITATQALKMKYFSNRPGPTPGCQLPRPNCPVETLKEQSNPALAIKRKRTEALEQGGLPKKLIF
Chain of CDK7H (P51946 whole entry partner): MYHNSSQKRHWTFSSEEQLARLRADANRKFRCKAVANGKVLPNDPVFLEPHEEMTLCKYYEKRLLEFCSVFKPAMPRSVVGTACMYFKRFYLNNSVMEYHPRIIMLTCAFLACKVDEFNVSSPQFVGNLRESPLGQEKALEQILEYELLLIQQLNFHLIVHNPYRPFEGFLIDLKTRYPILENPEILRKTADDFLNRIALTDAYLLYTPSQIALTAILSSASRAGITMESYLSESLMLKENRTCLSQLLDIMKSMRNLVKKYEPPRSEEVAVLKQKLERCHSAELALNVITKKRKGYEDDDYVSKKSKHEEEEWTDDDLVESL
Chain of CDK7H (P51948 whole entry partner): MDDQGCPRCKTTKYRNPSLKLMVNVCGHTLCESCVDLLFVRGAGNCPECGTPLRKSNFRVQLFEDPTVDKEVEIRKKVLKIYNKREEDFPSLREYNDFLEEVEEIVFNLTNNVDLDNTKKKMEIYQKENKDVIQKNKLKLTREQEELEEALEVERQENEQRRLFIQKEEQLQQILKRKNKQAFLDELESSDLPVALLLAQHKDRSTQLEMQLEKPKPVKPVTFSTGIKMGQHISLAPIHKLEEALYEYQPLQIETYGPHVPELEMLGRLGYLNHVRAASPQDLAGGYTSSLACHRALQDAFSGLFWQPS

Compound	GI50 (D458; Medulloblastoma) [nM]	GI50 (D283; D283, 72 h, Medulloblastoma) [nM]	GI50 (MV4-11; [1]) [nM]	GI50 (MDA-MB-453; [2]) [nM]	GI50 (A2780; A2780, 72 h, Ovarian) [nM]	Ki (CDK6D3) [nM]	Ki (CDK4D1) [nM]	Ki (CDK1B) [nM]	GI50 (D458) [nM]	Ki (CDK7H) [nM]	Ki (CDK9T1) [nM]	GI50 (D283; D283, 72 h) [nM]	GI50 (MV4-11; Homo sapiens, MV4-11, 72 h, read-out: Anti-proliferative activity GI50 MV4-11) [nM]	GI50 (MDA-MB-453; Homo sapiens, MDA-MB-453, 72 h, read-out: Anti-proliferative activity GI50 MDA-MB-453) [nM]	Ki (CDK 2A) [nM]	GI50 (A2780; A2780, 72 h) [nM]	GI50 (MV4-11; 72 h; read-out: Anti-proliferative activity GI50 MV4-11) [nM]	GI50 (MDA-MB-453; 72 h; read-out: Anti-proliferative activity GI50 MDA-MB-453) [nM]
Cc1nc(NC2CCCC2)sc1-c1nc(Nc2ccc(N3CCN(C)CC3)cn2)ncc1F [Compound 64]	457 ± 171	77 ± 6	73 ± 28	202 ± 30	56 ± 7	–	–	–	–	–	–	–	–	–	–	–	–	–
CNc1nc(C)c(-c2ccnc(Nc3ccc(N4CCN(C)CC4)cn3)n2)s1 [Compound 29, N,4-dimethyl-5-(2-((5-(4-methylpiperazin-1-yl)pyridin-2-yl)amino)pyrimidin-4-yl)thiazol-2-amine]	–	–	–	–	–	50	5	3210	326 ± 29	> 5000	1820	335 ± 97	297 ± 61	544 ± 78	650	282 ± 58	–	–
Cc1nc(C)c(-c2nc(Nc3ccc(N4CCN(C)CC4)cn3)ncc2C#N)s1 [Compound 5, 4-(2,4-dimethylthiazol-5-yl)-2-((5-(4-methylpiperazin-1-yl)pyridin-2-yl)amino)pyrimidine-5-carbonitrile]	–	–	500 ± 247	914 ± 98	–	27	70	> 5000	–	> 5000	> 5000	–	–	–	> 5000	–	–	–
CNc1nc(C)c(-c2nc(Nc3ccc(N4CCN(C)CC4)cn3)ncc2F)s1 [Compound 31, 5-(5-fluoro-2-((5-(4-methylpiperazin-1-yl)pyridin-2-yl)amino)pyrimidin-4-yl)-N,4-dimethylthiazol-2-amine]	645 ± 97	489 ± 22	11 ± 4	381 ± 96	94 ± 1	10	2	> 5000	–	> 5000	1910	–	–	–	365	–	–	–
CC(=O)N1CCN(c2ccc(Nc3ncc(F)c(-c4sc(N(C)C)nc4C)n3)nc2)CC1 [Compound 49, 1-(4-(6-((4-(2-(dimethylamino)-4-methylthiazol-5-yl)-5-fluoropyrimidin-2-yl)amino)pyridin-3-yl)piperazin-1-yl)ethan-1-one]	–	–	208 ± 30	2370 ± 26	–	366	24	> 5000	–	> 5000	> 5000	–	–	–	1040	–	–	–
CC(=O)N1CCN(c2ccc(Nc3nccc(-c4sc(SC(C)C)nc4C)n3)nc2)CC1 [Compound 25, 1-(4-(6-((4-(2-(isopropylthio)-4-methylthiazol-5-yl)pyrimidin-2-yl)amino)pyridin-3-yl)piperazin-1-yl)ethan-1-one]	–	–	537 ± 117	514 ± 50	–	20	5	> 5000	–	> 5000	> 5000	–	–	–	75	–	–	–
CCN1CCN(c2ccc(Nc3nccc(-c4sc(C(C)C)nc4C)n3)nc2)CC1 [Compound 15, N-(5-(4-ethylpiperazin-1-yl)pyridin-2-yl)-4-(2-isopropyl-4-methylthiazol-5-yl)pyrimidin-2-amine]	–	–	63 ± 26	542 ± 65	–	25	5	3100	–	> 5000	> 5000	–	–	–	465	–	–	–
Cc1nc(N(C)c2ccccc2)sc1-c1ccnc(Nc2ccc(N3CCN(C)CC3)cn2)n1 [Compound 91, N,4-dimethyl-5-(2-((5-(4-methylpiperazin-1-yl)pyridin-2-yl)amino)pyrimidin-4-yl)-N-phenylthiazol-2-amine]	–	–	421 ± 44	150 ± 29	–	100	26	> 5000	–	> 5000	2000	–	–	–	1040	–	–	–
CCN1CCN(Cc2ccc(Nc3nccc(-c4sc(C(C)C)nc4C)n3)nc2)CC1 [Compound 18, N-(5-((4-ethylpiperazin-1-yl)methyl)pyridin-2-yl)-4-(2-isopropyl-4-methylthiazol-5-yl)pyrimidin-2-amine]	–	–	418 ± 23	166 ± 117	–	394	28	> 5000	–	> 5000	> 10000	–	–	–	775	–	–	–
CNc1nc(C)c(-c2nc(Nc3ccc(N4CCN(S(C)(=O)=O)CC4)cn3)ncc2F)s1 [Compound 52, 5-(5-fluoro-2-((5-(4-(methylsulfonyl)piperazin-1-yl)pyridin-2-yl)amino)pyrimidin-4-yl)-N,4-dimethylthiazol-2-amine]	–	–	425 ± 73	660 ± 92	–	297	37	580	–	> 5000	> 5000	–	–	–	76	–	–	–
CNc1nc(C)c(-c2nc(Nc3ccc(N4CCOCC4)cn3)ncc2F)s1 [Compound 38, 5-(5-fluoro-2-((5-morpholinopyridin-2-yl)amino)pyrimidin-4-yl)-N,4-dimethylthiazol-2-amine]	–	–	69 ± 5	5410 ± 801	–	30	5	3320	–	> 5000	> 5000	–	–	–	100	–	–	–
CC(=O)N1CCN(c2ccc(Nc3ncc(F)c(-c4sc(NC5CCCC5)nc4C)n3)nc2)CC1 [Compound 69, 1-(4-(6-((4-(2-(cyclopentylamino)-4-methylthiazol-5-yl)-5-fluoropyrimidin-2-yl)amino)pyridin-3-yl)piperazin-1-yl)ethan-1-one]	–	–	15 ± 2	8110 ± 1150	–	23	34	> 5000	–	> 5000	4990	–	–	–	228	–	–	–
CC(=O)N1CCN(c2ccc(Nc3nccc(-c4sc(C)nc4C)n3)nc2)CC1 [Compound 1, 1-(4-(6-((4-(2,4-dimethylthiazol-5-yl)pyrimidin-2-yl)amino)pyridin-3-yl)piperazin-1-yl)ethan-1-one]	–	–	1100 ± 345	> 10000	–	590	81	> 5000	–	> 5000	> 5000	–	–	–	> 5000	–	–	–
CCc1nc(C)c(-c2ccnc(Nc3ccc(N4CCNCC4)cn3)n2)s1 [Compound 7, 4-(2-ethyl-4-methylthiazol-5-yl)-N-(5-(piperazin-1-yl)pyridin-2-yl)pyrimidin-2-amine]	–	–	606 ± 150	3860 ± 220	–	237	59	> 5000	–	> 5000	> 5000	–	–	–	1710	–	–	–
5-(2-((5-(4-Ethylpiperazin-1-yl)pyridin-2-yl)amino)-5-fluoropyrimidin-4-yl)-N,4-dimethylthiazol-2-amine [Compound 32]	–	–	–	–	–	20	5	> 5000	–	> 5000	2920	–	–	–	665	–	65 ± 2	528 ± 46
Cc1nc(NC(C)C)sc1-c1ccnc(Nc2ccc(N3CCOCC3)cn2)n1 [Compound 58, N-isopropyl-4-methyl-5-(2-((5-morpholinopyridin-2-yl)amino)pyrimidin-4-yl)thiazol-2-amine]	–	–	32 ± 3	115 ± 24	–	82	41	> 5000	–	> 5000	> 5000	–	–	–	127	–	–	–
Cc1nc(N(C)C)sc1-c1nc(Nc2ccc(N3CCNCC3)cn2)ncc1F [Compound 44, 5-(5-fluoro-2-((5-(piperazin-1-yl)pyridin-2-yl)amino)pyrimidin-4-yl)-N,N,4-trimethylthiazol-2-amine]	–	–	48 ± 4	237 ± 44	–	40	4	> 5000	–	> 5000	> 5000	–	–	–	335	–	–	–

From patent publication USRE49850E1, “N-(pyridin-2-yl)-4-(thiazol-5-yl)pyrimidin-2-amine derivatives as therapeutic compounds” (AUCENTRA THERAPEUTICS PTY LTD, priority 2015, dated 2024)
